In patent publication US20230398095A1, “THERAPEUTIC AGENT FOR TREATMENT OF AGE-RELATED MACULAR DEGENERATION” (priority 2022, published 2023):

Tested on: Human Tenon's capsule fibroblasts (HTCF)
Experiment: Oxidative stressor dosage curve, cell metabolic activity (MTT) of HTCF
Assay type: cell-based
Conditions: one-hour incubation, dose-dependent, n=4
Experimental: The following preferred method was utilized in conducting the experiment: • 1) Culture cells (90% confluence) • 2) Load 5×10^4 cells/well in 24-well plates • 3) Change to serum-free medium overnight • 4) Treat cells • 5) Measure cell metabolic activity (MTT) or % cytotoxicity (LDH) • 6) Normalize results • 7) Replicate experiment with cell lines from different patients • 8) Conduct statistical analysis
1. Treat cells with serum free medium and tert-butyl hydroperoxide (t-BOOH) at 0 mM (VC), […], 0.1 mM, 0.5 mM, 1 mM and 2 mM for 30 min, 1 h, 2 h, 3 h
2. Measure cell metabolic activity with 3-(4,5-dimethylthiazol-2-yl)-2,5-diphenyltetrazolium bromide (MTT) assay
FIGS. 5A-5D show the cell metabolic activity of HTCF cells in response to treatment with tert-butyl hydroperoxide (t-BOOH).
Dose-dependent effect of a one-hour incubation.

## CC(C)(C)OO [tert-butyl hydroperoxide (t-BOOH), Tert-butyl hydroperoxide]
  cell metabolic activity versus control sample: significant effect versus the control sample
